One series deals with Sprague-Dawley rats. To be noted: rat, in vivo.
In the next series the test system is Gottingen Minipigs. To be noted: minipig, in vivo. How it is done: The broad aim of the study was to evaluate the potential dermal toxicity of DMSO when administered topically to four groups of Gottingen Minipigs® for 52 weeks at concentrations of 0, 9%, 45.5% and 90% (w/w) and to evaluate reversibility, progression, or delayed appearance of any observed changes following a 1-month postdose observation period. Two additional groups of Gottingen Minipigs® were dosed topically for 39 weeks at 0% and 90% followed by a 4-month recovery post dose observation period.
Four groups consisting of six animals/sex/group received DMSO at respective dose levels of 0, 9, 45.5, or 90% (w/w) by dermal application three times a day for 364 consecutive days. Following 52 weeks of administration, two animals/sex at 0, 9, 45.5, and 90% dose levels were maintained for a 4-week recovery period. Two additional groups consisting of six animals/sex/group received the control or 90% (w/w) DMSO by dermal application three times a day for 273 consecutive days. Following 39 weeks of administration, two animals/sex at 0 and 90% dose levels were maintained for a 4 month recovery period. […]
Clinical observations were conducted weekly. At the end of the each treatment and recovery period, necropsy examinations were performed, organ weights were recorded, and selected tissues were microscopically examined. […]

For series [1] the following is noted: cited from earlier work.
Series [2] relates to subjects with primary osteoarthritis of the knee. In words: 12-week randomized controlled trial: safety (adverse events, laboratory parameters, ocular examination). It counts as in vivo, human. How it is done: Study Design: Eligible subjects were stratified by the investigator at baseline into stratum 1 (no pain and normal radiological examination in the non-study knee) or stratum 2 (pain and/or abnormal radiological examination in the non-study knee), and then randomized into the trial by receiving the next numbered study kit at that clinic for that stratum. […] Subjects applied 40 drops of solution (approximately 1.2 mL) around the entire circumference of the study knee, without massage, 4 times daily, and took one study tablet daily for up to 12 weeks.
Each subject completed a full efficacy assessment questionnaire after randomization at baseline and at 4, 8 and 12 weeks, or at drop out. […] The POHA asked the question, “Considering all the ways your osteoarthritic (study) knee and its treatment affect you, including both positive and negative effects, how would you rate your overall state of health in the past 48 hours?” Secondary efficacy variables were WOMAC stiffness and patient global assessment (“PGA”) of knee osteoarthritis. The PGA asked the question, “How has the osteoarthritis in your study joint been over the last 48 hours?” The POHA and PGA were scored on a 5-point Likert scale. There was no assessment of the non-treated knee. […] Adverse events were categorized according to Coding Symbols for Thesaurus of Adverse Reaction Terms (“COSTART”). Blood and urine samples were obtained for routine laboratory analysis at baseline, 4 and 12 weeks. Ocular examination (visual acuity test, slit lamp examination and lens assessment) was conducted at the baseline and final visit.
For a missing final score, last observation was carried forward (“LOCF”). Safety analyses were performed on all subjects who received even one dose of either study medication. There was no imputation of missing safety data.

The subject of series [3] is symptomatic primary osteoarthritis of the knee. Description: 12-week double-blind, double-dummy randomized controlled trial: efficacy (WOMAC, POHA, PGA). The series is classed as in vivo, human. To be noted: 12 weeks. Here is the method: This randomized, double-blind, double-dummy, placebo-, vehicle- and active-controlled study was conducted at 40 outpatient centers in Canada and 21 centers in the United States following approval by the appropriate institutional review boards. Eligible subjects, after written informed consent, included men and non-pregnant women aged 40-85 with primary OA of the knee based on (i) standard radiological criteria for OA (Altman, R D, et al., Atlas of individual radiographic features in osteoarthritis. […] J Rheumatol. 1988 December; 15(12):1833-40). All knee films were reviewed by a single radiologist and each compartment was scored (none=1, mild=2, moderate=3, severe=4). Only one knee was treated; where both knees met all entry criteria, the more painful knee (or dominant knee if they scored the same) was selected. Standard exclusion criteria were employed, as described in Roth S H, Shainhouse J Z. Efficacy and safety of a topical diclofenac solution ([…]®) in the treatment of primary osteoarthritis of the knee: a randomized, double-blind, vehicle-controlled clinical trial. Arch Intern Med. 2004; 164:2017-23. Study Design: […] Each study kit contained topical solution and oral tablets for one of the five treatment regimens: […] Topical Diclofenac Solution plus oral diclofenac tablets. […] Concomitant analgesic and anti-inflammatory medications, including over the counter NSAIDs and other analgesics, were prohibited. Continuation of stable treatment with glucosamine, chondroitin, anti-depressants or a proton pump inhibitor (previous 90 days), or low-dose (<325 mg/day) acetylsalicylic acid (previous 30 days) was permitted. Acetaminophen was provided, and permitted (up to four 325-mg caplets per day) except during the 3 days before each efficacy assessment. Other topical products on the knee, including skin emollients, were prohibited. A patient with a gastrointestinal adverse event was allowed to start a proton pump inhibitor. Compliance with the treatment regimen was assessed by weighing the solution bottles and counting study tablets at each clinic visit. […] of randomized placebo controlled clinical trials. J Rheumatol. 2006; 33:1841-4), and patient overall health assessment (“POHA”). The POHA asked the question, “Considering all the ways your osteoarthritic (study) knee and its treatment affect you, including both positive and negative effects, how would you rate your overall state of health in the past 48 hours?” Secondary efficacy variables were WOMAC stiffness and patient global assessment (“PGA”) of knee osteoarthritis. The PGA asked the question, “How has the osteoarthritis in your study joint been over the last 48 hours?” The POHA and PGA were scored on a 5-point Likert scale. There was no assessment of the non-treated knee. […] Adverse events were categorized according to Coding Symbols for Thesaurus of Adverse Reaction Terms (“[…]”). Blood and urine samples were obtained for routine laboratory analysis at baseline, 4 and 12 weeks. Ocular examination (visual acuity test, slit lamp examination and lens assessment) was conducted at the baseline and final visit. All planned analyses were specified a priori. […] Statistical tests were two-sided at the 5% level of significance. All efficacy analyses were by analysis of covariance of the change in score from baseline to landmark final assessment, with baseline score as the covariate. Subjects in both randomization strata were combined for all analyses. Secondary comparisons included topical diclofenac vs. placebo for the secondary variables, and topical diclofenac vs. DMSO vehicle and DMSO vehicle vs. placebo for all variables. A post hoc efficacy analysis compared topical diclofenac vs. oral diclofenac and topical diclofenac+oral diclofenac vs. oral diclofenac. For a missing final score, last observation was carried forward (“LOCF”). Safety analyses were performed on all subjects who received even one dose of either study medication. There was no imputation of missing safety data. […]

Where [4] appears, read: 50 mg of oral diclofenac TID, label of Voltaren Gel.
[5] abbreviates: clinical trials, combination compared to oral diclofenac alone.
Setting [6] is: normal at baseline to above upper limit of normal.
[7] abbreviates: mean (SD), maximum score 4, mITT.

In the case of `C[S+](C)[O-]` [DMSO, Dimethyl sulfoxide], in the series on Sprague-Dawley rats, the ophthalmoscopic abnormalities result was “No test article-related ophthalmoscopic abnormalities”. Besides, in the series with Gottingen Minipigs, the ophthalmoscopic abnormalities entry is “no test article-related ophthalmoscopic abnormalities of any kind” and the “risk for development of lens opacities or refractive index changes” value is given as “no increased risk for development of lens opacities or refractive index changes”.

Turning to `O=C(O)Cc1ccccc1Nc1c(Cl)cccc1Cl` [ODiclo, diclofenac], in series [1] (setting [4]), the “mean AUC0-24” value is listed as 3890 ng·h/mL and the “mean Cmax” value is reported as 2270 ng/mL. In addition, in series [1] (oral), the “predicted level of diclofenac reported with oral diclofenac” value was 1500 ng/mL. In series [2] (12 weeks), the Abdominal pain is recorded as 11 (7.3) number (%) of subjects, the “Abnormal taste sensation or odor” value is 0 (0.0) number (%) of subjects, the Any adverse event is given as 94 (62.3) number (%) of subjects and the “Any digestive system event” value is recorded as 36 (23.8) number (%) of subjects. In addition, in series [2] (12 weeks), the Any skin/appendages event is 11 (7.3) number (%) of subjects, the “Contact dermatitis (application site)” value is 1 (0.7) number (%) of subjects, the “Contact dermatitis with vesicles (application site)” value was 1 (0.7) number (%) of subjects and the Diarrhea was 7 (4.6) number (%) of subjects. For the same compound, in series [2] (12 weeks), the “Dry skin (application site)” value is recorded as 4 (2.6) number (%) of subjects, the Dyspepsia was 6 (4.0) number (%) of subjects, the Nausea was 3 (2.0) number (%) of subjects and the “Pruritis (application site)” value was 0 (0.0) number (%) of subjects. In series [2] (12 weeks), the Rash was 0 (0.0) number (%) of subjects, the Rectal hemorrhage was 0 (0.0) number (%) of subjects, the incidence of hypertension is 1.3% and the “increase in any liver enzyme to three times the upper limit of normal” value is 2 subjects. In series [2] (12 weeks, other system event), the Abnormal vision is on record as 4 (2.6) number (%) of subjects, the Accidental injury is listed as 4 (2.6) number (%) of subjects, the Arthralgia is 12 (7.9) number (%) of subjects and the Back pain was 11 (7.3) number (%) of subjects. Further, in series [2] (12 weeks, other system event), the Conjunctivitis is on record as 3 (2.0) number (%) of subjects, the Headache is recorded as 26 (17.2) number (%) of subjects, the Pain is on record as 8 (5.3) number (%) of subjects and the Respiratory disorder is 8 (5.3) number (%) of subjects. In series [2] (baseline to final, mean (SD)), the “ALT, mean change” value is given as 7.2 (25.3) U/L; the “AST, mean change” value is given as 2.5 (10.9) U/L; the “Creatinine, mean change” value was 3.1 (11.0) μmol/L; the “Hemoglobin, mean change” value is given as −3.8 (7.1) g/L. In series [2] (setting [5]), the abnormal creatinine was found to be 7%, the abnormal hemoglobin was 9% and the abnormal urea stood at 12%. Further, the “rate of rectal hemorrhage” value in series [2] (clinical trials, combination of topical and oral diclofenac compared to oral diclofenac alone) is “less than 1%”. Further, in series [2] (setting [6]), the “ALT, normal to abnormal” value is 26 (18.8) N (%) and the “Creatinine, normal to abnormal” value is 10 (7.2) N (%). Also, the “Hemoglobin, normal to abnormal” value in series [2] (normal at baseline to below lower limit of normal) was 8 (5.8) N (%). In addition, the serious adverse events in series [2] (number of events per arm, 12 weeks) is given as 1. In series [3] (setting [7]), the “PGA (patient global assessment of the study knee), change in score” value was −1.42 (1.29) and the “POHA (patient overall health assessment), change in score” value was −0.88 (1.31). Besides, in series [3] (mean (SD), maximum score 8, mITT), the “WOMAC Stiffness, change in score” value is −2.07 (2.02). Further, the “WOMAC Pain, change in score (final score minus baseline score)” value in series [3] (mean (SD), maximum score 20, mITT) was −6.4 (4.1). Further, in series [3] (mean (SD), maximum score 68, mITT), the “WOMAC Physical Function, change in score” value is given as −17.5 (14.3). The “improvement in variable score” value in series [3] (oral diclofenac group) is 40-48%.

These data come from patent US20200352886A1 (priority 2009, published 2020).
